Source: US20090074766A1, “Methods of inhibiting HIV-2 infection” (priority 2007, published 2009)

Experiments:
HIV-1 = conditions: treatment period of 10-14 days, dose-dependent; cited from earlier work
[1] = single administration of TAK-652 solution (Baba et al., 2005); cited from earlier work
[2] = system: reporter viruses pseudotyped with HIV-1JR-FL envelope; type: cell-based; design: CI90: unit not given beside the values; conditions: for CI50 / CI90: labelled 1st inhibitor with 2nd inhibitor PRO 140, envelope JRFL, equimolar (1:10 PRO 140 to zidovudine or nevirapine); for inhibition of HIV-1 pseudovirus entry: result in words, data not shown
Source text: HIV-1 pseudoparticles (HIV-1pp) are generated in 293T cells by transient coexpression of an HIV-1-based NL4/3luc+env− plasmid and a construct encoding HIV-1JRFL Env. The NL4/3luc+env− plasmid was obtained from the NIH AIDS Research and Reference Reagent Program (Cat. No. 3418), and the HIV-1JRFL Env was inserted into the pcDNA3.1 vector (Invitrogen). Briefly, 293T cells are calcium phosphate transfected with a 1:1 ratio of NL4/3luc+env− reporter vector and Env expression vector in Hepes buffer (Profection Mammalian Transfection Kit, Promega). After 16 h the transfection medium is aspirated and fresh cell culture medium (DMEM with 10% FBS, glutamine and antibiotics) is added and the incubation is continued at 37° C. for an additional 24-32 h. Cell culture supernatants are collected 48 h post-transfection and centrifuged at 1,400 rpm for 10 min to pellet cell debris. The viral supernatant is brought to a final concentration of 5% sucrose and stored aliquoted at −80° C.
U87-CD4-CCR5 cells were obtained from the NIH AIDS Research and Reference Program (Cat. No. 4035). These cells are maintained in culture medium (DMEM with 10% FBS, antibiotics and glutamine) containing 0.3 mg/ml G418 and 0.5 mg/ml puromycin. Cells are grown in T175-cm^2 flasks at 37° C. and diluted 1:5 every 3-4 days. For assay plate preparation, cells are trypsinized and seeded into wells of 96-well tissue-culture treated flat bottom opaque polystyrene plates (Perkin Elmer, Boston, Mass.) at a density of 3×10^3 cells/well. Plates are incubated for no more than 4 h at 37° C. in a humidified 5% CO2 incubator prior to their use in the HIV-1 pp susceptibility assay.
Fifty μl of diluted compound at 4× the desired final concentration are added per well. For compounds solubilized in DMSO, the 4× stock will contain 2% DMSO (such that the final DMSO concentration in the assay is always 0.5% for small molecules). Control wells receiving no compound are included on each plate. In addition, an AZT inhibition control is included in each assay. Compounds are tested individually and at a fixed mass or molar ratio over a broad range of concentrations.
A vial of frozen, aliquoted HIV-1pp is thawed in a 37° C. waterbath and then placed on wet ice. Virus is diluted in cold cell culture medium as necessary to achieve the desired final virus concentration in the HIV-1pp assay (about 10,000 relative light units (rlu) per well). 50 μl of diluted virus are added per well, bringing the final well volume to 200 μl. A no-virus control (minimum or background luminescence) and a no-compound control (maximum luminescence) are included on each plate. The plates are incubated for 72 h at 37° C. in a humidified 5% CO2 incubator followed by processing for luciferase signal (see below).
Assay medium is aspirated and 200 μl of PBS are added to each well. […] Assay plates are then frozen for at least 2 h at −80° C. followed by thawing at room temperature and vigorous mixing with an electronic pipettor. 25 μl from each well are transferred to an opaque 96-well plate (Costar #3922). Four replicates are pooled into the same well on the opaque plate. 100 μl of freshly thawed and reconstituted luciferase substrate (Luciferase Assay System, Promega—Cat. No. E1501) are added to each well of the plate with the electronic pipettor, and luminescence is detected immediately on a Dynex MLX plate reader set to medium gain.
The percent inhibition is derived as follows: [1−(luciferase activity in the presence of drug/luciferase activity in the absence of drug)]×100. IC50 values are determined by fitting the inhibition data with a non-linear, four-parameter, variable slope equation (GraphPad Prism, ver. 4.02; GraphPad Software, San Diego, Calif.). Upper and lower inhibition values are constrained to 100% and 0%, respectively for curve fitting. […]

[3] = system: reporter viruses pseudotyped with HIV-1SF162 envelope; type: cell-based; design: CI90: unit not given beside the values; conditions: labelled 1st inhibitor with 2nd inhibitor PRO 140; envelope SF162; equimolar (1:10 PRO 140 to zidovudine or nevirapine)
Source text: A self-inactivating (SIN) vector was derived from the pNL4-3ΔEnv-luciferase vector (Dragic et al. 1996) by deleting 507 basepairs in the U3 region of the 3′ long terminal repeat (LTR) so as to remove the TATA box and transcription factor binding sites. The human cytomegalovirus promoter was inserted upstream of the luciferase (luc) gene to enable expression of luciferase following integration.
Reporter viruses pseudotyped with HIV-1JR-FL or HIV-1SF162 envelopes were generated by cotransfection of 293T cells with the SIN vector and the appropriate pcDNA env-expressing vector as previously described (Dragic et al. 1996). […] Cultures were incubated for 72 h at 37° C. in DMEM containing 10% fetal bovine serum, 1 mg/mL puromycin, 0.3 mg/mL geneticin, antibiotics, and 0.5% DMSO. Luciferase activity (relative light units or RLU) was measured using BrightGlo reagent (Promega, Madison, Wis.) according to the manufacturer's instructions. Percent inhibition was calculated as: (1−RLU in the presence of inhibitor/RLU in the absence of inhibitor)×100.
Experimental design and data analysis were based on the combination index (CI) method (Chou et al. 1991; Chou et al. 1984). Compounds were tested individually and in combination at a fixed molar ratio over a range of serial dilutions. […] The mutually exclusive CI formula was used for combinations of CCR5 inhibitors, while the mutually non-exclusive formula was utilized for combinations of inhibitors to distinct targets (Chou et al. 1991). Each test was conducted 4-12 times. Synergy, additivity and antagonism are indicated by CI<1, CI=1 and CI>1, respectively.

[4] = target: HIV-1JR-FL envelope-mediated membrane fusion (HeLa-EnvJRFL and CEM NKR-CCR5 cells) (Homo sapiens, UniProt P51681); assay: cell-based; conditions: 2D7 in combination with the labelled inhibitor, 1:1 molar ratio
Protocol: (§1) The HIV-1 RET assay has been described in detail previously (Litwin et al., 1996). Briefly, fluorescein octadecyl ester (F18; Molecular Probes, Eugene, Oreg.; 5 mg/ml in ethanol), was diluted 1:800 in DMEM labeling medium (DMEM; Invitrogen, Carlsbad, Calif.) with 10% fetal bovine serum (FBS; HyClone, Logan, Utah) and adjusted to an A506 of 0.34±10%. Octadecyl rhodamine B chloride (R18; Molecular Probes; 10 mg/ml in ethanol) was diluted 1:2050 in labeling medium and adjusted to an A565 of 0.52±10%. Both dyes were further diluted 2-fold by addition to cells in T75-cm^2 flasks. HeLa-EnvJRFL and CEM NKR-CCR5 cells were incubated overnight in F18- and R18-containing culture medium, respectively. The following day, medium from HeLa-EnvJRFL cells was removed and 10 ml of 0.5 mM EDTA was added and incubated at 37° C. for 5 min. EDTA was removed and the flask was returned to the incubator for another 5 min followed by striking of the flask to dislodge cells. […] Suspension CEM NKR-CCR5 cells were added directly to a separate 50-ml conical centrifuge tube. Both cell lines were centrifuged at 300×g for 5 min. The supernatant was discarded and cells were resuspended in 10 ml of PBS-/15% FBS. The centrifugation/wash step was repeated twice, after which the cells were counted and concentrations adjusted to 1.5×10^6 cells/ml. Ten μl of each cell type (15,000 cells) were seeded into wells of a 384-well plate. Inhibitor compounds were added immediately thereafter to bring the final well volume to 40 μl, and the plates were incubated for 4 h at 37° C. Compounds were tested individually and in combination at a fixed molar ratio or mass ratio over a range of serial dilutions. The plates were then read on a fluorescence plate reader (Victor^2, Perkin Elmer, Boston, Mass.) using the excitation/emission filter combinations shown in Table 6.
(§2) The “% RET” was calculated according to the following formula after subtraction of background (blank) readings: […]
(§3) The “% Inhibition” was calculated according to the following formula: […]
(§4) Fifty percent inhibition (IC50) values were determined by fitting the inhibition data with a non-linear, four-parameter, variable slope equation (GraphPad Prism, 4.02; GraphPad Software, San Diego, Calif.). Upper and lower inhibition values were constrained to 100% and 0%, respectively for curve fitting.
(§5) For testing, small molecule compounds were solubilized in dimethylsulfoxide (DMSO) to 10 mM and then diluted in DMSO to 200× the final concentration to be utilized in the antiviral assay. Serial dilutions of small molecules were conducted in DMSO. Subsequent dilutions were conducted in medium to achieve a final DMSO concentration in the assay of 0.5%. Peptides and mAbs were diluted in PBS in the absence of DMSO.
(§6) HeLa cells were engineered to express HIV-1 gp120/gp41 from the macrophage-tropic primary isolate JRFL as described (HeLa-EnvJRFL; Litwin et al., 1996). Briefly, the HIV-1LAI Env gene was excised from the plasmid pMA243 (Dragic et al., 1992) and the HIV-1JRFL Env gene was inserted. The HIV-1JRFL Env gene was amplified from the plasmid pUCFL112-1 (Koyanagi et al., 1987). The resulting plasmid, designated JR-FL-pMA243, was sequenced by standard methods and transfected into HeLa cells using lipofectin (Gibco BRL/Invitrogen, Carlsbad, Calif.). HeLa-EnvJRFL transfectants were selected in methotrexate (Sigma, St. Louis, Mo.) and cloned twice by limiting dilution. The transduced human T cell leukemia line CEM NKR-CCR5 cells were obtained from the NIH AIDS Research and Reference Program (Cat. No. 458).
(§7) The HIV-1 RET assay has been described in detail previously (Litwin et al., 1996). Briefly, fluorescein octadecyl ester (F18; Molecular Probes, Eugene, Oreg.; 5 mg/ml in ethanol), was diluted 1:800 in DMEM labeling medium (DMEM; Invitrogen, Carlsbad, Calif.) with 10% fetal bovine serum (FBS; HyClone, Logan, Utah) and adjusted to an A506 of 0.34±10%.

[5] = in vivo, cited from earlier work
[6] = system: HIV-1JR-FL envelope-mediated membrane fusion (HeLa-EnvJRFL and CEM NKR-CCR5 cells); assay: cell-based; conditions: 1st inhibitor alone (Table 13)
Protocol: as §1, §2, §3, §4, §5, §6, §7

HIV-1JR-FL envelope-mediated membrane fusion (HeLa-EnvJRFL and CEM NKR-CCR5 cells) (Homo sapiens, UniProt P51681), sequence (P51681 whole entry, the tested form may be a part): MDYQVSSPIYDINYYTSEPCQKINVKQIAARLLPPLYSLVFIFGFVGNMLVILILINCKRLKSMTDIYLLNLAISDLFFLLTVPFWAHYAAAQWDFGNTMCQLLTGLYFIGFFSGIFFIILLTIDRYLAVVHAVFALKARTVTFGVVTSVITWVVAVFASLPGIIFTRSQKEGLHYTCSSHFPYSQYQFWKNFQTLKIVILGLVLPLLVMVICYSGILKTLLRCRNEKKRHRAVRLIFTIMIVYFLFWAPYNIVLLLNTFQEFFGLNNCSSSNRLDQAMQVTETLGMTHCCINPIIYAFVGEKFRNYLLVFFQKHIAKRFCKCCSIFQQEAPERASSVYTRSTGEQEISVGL

Q: With CCCCN1C(=O)[C@@H]([C@H](O)C2CCCCC2)NC(=O)C12CCN(Cc1ccc(Oc3ccc(C(=O)O)cc3)cc1)CC2 [GW873140] as the compound, how does the “mean reductions in HIV-1 RNA levels” value (HIV-1) read?
A: The value was about 1 log10.

Q: Which “mean reductions in HIV-1 RNA levels” value (HIV-1) does the source give for CCO/N=C(\c1ccc(Br)cc1)C1CCN(C2(C)CCN(C(=O)c3c(C)cc[n+]([O-])c3C)CC2)CC1 [SCH-C] here?
A: Its value is about 1 log10.

Q: With CCCCOCCOc1ccc(-c2ccc3c(c2)/C=C(/C(=O)Nc2ccc([S@@+]([O-])Cc4cncn4CCC)cc2)CCCN3CC(C)C)cc1.CS(=O)(=O)O [TAK-652] as the compound, how does the safety and tolerability [1] read?
A: Its safety and tolerability is “safe and well tolerated”.

Q: Which results are given for Cc1ccnc2c1NC(=O)c1cccnc1N2C1CC1 [nevirapine]?
A: CI50 [2]: 1.2 ± 0.38; CI90 [2]: 0.73 ± 0.28; CI50 [3]: 1.2 ± 0.34; CI90 [3]: 0.63 ± 0.19

Q: What does the source list for Cc1cn([C@H]2C[C@H](N=[N+]=[N-])[C@@H](CO)O2)c(=O)[nH]c1=O [zidovudine]?
A: CI50 [2]: 1.1 ± 0.38; CI90 [2]: 0.85 ± 0.26; CI50 [3]: 0.99 ± 0.27; CI90 [3]: 1.0 ± 0.38

Q: Which results are given for “RANTES: CC-chemokine, natural peptide ligand of CCR5, purchased from R&D Systems”?
A: inhibition of HIV-1 pseudovirus entry [2]: Neither TAK-779 nor RANTES mediated consistent, high-level inhibition; Mean Dose Reduction (2D7) [4]: 1.94 ± 0.08; Mean Dose Reduction (Cpd in combination) [4]: 10.18 ± 1.86

Q: Which results are given for TAK-779?
A: inhibition of HIV-1 pseudovirus entry [2]: Neither TAK-779 nor RANTES mediated consistent, high-level inhibition; oral bioavailability ([5]; po): poor oral bioavailability; local tolerability [5]: local injection site irritation

Q: With enfuvirtide as the compound, how does the IC50 [6] read?
A: Its IC50 is 0.0086 µM.

Q: And the IC90 [6]?
A: The IC90 was 0.066 µM.
